Results: patent publication US12435072B2, “Compounds” (Vicore Pharma AB, priority 2019, dated 2025)
Read-outs that look alike come from different tables or passages of the source.

Key:
[1] = Metabolic stability in pooled human liver microsomes; format: in vitro ADME; details: pooled human liver microsomes 0.5 mg/ml, 1 μM test compound, 37° C.
Procedure: Pooled human liver microsomes in PBS at a concentration of 0.5 mg/ml was incubated with or without 1 mM NADPH for 70 min at 37° C. Test compound was added after 10 minutes to a final concentration of 1 μM. Samples were withdrawn at 0, 5, 15 and 60 minutes and added to test tubes containing acetonitrile, to stop the reaction, and with terfenadine, used as internal standard. After centrifugation at 10 000×g for 5 minutes the supernatant was diluted 1:1 with 1% formic acid. Samples were separated on a reverse phase column and detected by triple quadrupole MSMS (Agilant model 6540). The concentration of the parent compound at the different time points was measured with an external standard curve using terfenadine as internal standard and the initial metabolic rate in the presence or absence of NADPH calculated.

[2] = biological target: T1, human recombinant AT2 receptor (Homo sapiens, UniProt P50052); assay: Binding to AT2 receptor, radiometric scintillation assay (Eurofins); details: ligand 125I CGP 42112A, tested at 1, 10, 100 and 1000 nM
T1 construct: purchased Eurofins ITEM26
T1 sequence (P50052 1-363): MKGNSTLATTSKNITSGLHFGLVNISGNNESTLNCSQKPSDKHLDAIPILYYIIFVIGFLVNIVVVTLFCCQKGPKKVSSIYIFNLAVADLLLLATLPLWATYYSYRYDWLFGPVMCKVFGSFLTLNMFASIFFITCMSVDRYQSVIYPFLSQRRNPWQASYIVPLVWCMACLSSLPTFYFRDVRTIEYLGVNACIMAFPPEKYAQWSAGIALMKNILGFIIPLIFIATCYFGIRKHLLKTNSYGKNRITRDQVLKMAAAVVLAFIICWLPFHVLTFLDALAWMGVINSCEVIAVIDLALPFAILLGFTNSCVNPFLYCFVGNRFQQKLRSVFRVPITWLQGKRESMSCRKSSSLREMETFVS
Procedure: (§1) Compounds were evaluated for binding to the human recombinant AT2 and AT1 receptor according to Eurofins protocol ITEM26 and ITEM24 using a radiometric scintillation assay.

[3] = biological target: T2, human recombinant AT1 receptor (Homo sapiens, UniProt P30556); assay: Binding to AT1 receptor, radiometric scintillation assay (Eurofins); details: ligand 125I(sar1,Ile8)-AT-II, tested at 1 and 10 μM
T2 construct: purchased Eurofins ITEM24
T2 sequence (P30556 1-359): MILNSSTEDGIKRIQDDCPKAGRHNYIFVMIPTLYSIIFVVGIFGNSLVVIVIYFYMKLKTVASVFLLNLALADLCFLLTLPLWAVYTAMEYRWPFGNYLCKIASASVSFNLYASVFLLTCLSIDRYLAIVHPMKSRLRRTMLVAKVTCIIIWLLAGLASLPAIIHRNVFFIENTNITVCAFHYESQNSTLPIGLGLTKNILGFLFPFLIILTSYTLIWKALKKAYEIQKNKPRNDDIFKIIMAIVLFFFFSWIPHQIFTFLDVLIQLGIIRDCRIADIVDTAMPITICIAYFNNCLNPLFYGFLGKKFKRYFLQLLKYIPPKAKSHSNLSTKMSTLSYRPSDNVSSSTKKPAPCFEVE
Procedure: as §1

[4] = biological target: T3, CYP2B6 (Homo sapiens, UniProt P20813); assay: CYP inhibition in human liver microsomes, CYP2B6; format: in vitro ADME; details: probe bupropion, substrate bupropion, read-out: CYP2B6 Inh %
T3 construct: incubated with human liver microsomes; tissue Eurofins ITEMG232; host or cells: human liver microsomes
T3 sequence (P20813 1-491): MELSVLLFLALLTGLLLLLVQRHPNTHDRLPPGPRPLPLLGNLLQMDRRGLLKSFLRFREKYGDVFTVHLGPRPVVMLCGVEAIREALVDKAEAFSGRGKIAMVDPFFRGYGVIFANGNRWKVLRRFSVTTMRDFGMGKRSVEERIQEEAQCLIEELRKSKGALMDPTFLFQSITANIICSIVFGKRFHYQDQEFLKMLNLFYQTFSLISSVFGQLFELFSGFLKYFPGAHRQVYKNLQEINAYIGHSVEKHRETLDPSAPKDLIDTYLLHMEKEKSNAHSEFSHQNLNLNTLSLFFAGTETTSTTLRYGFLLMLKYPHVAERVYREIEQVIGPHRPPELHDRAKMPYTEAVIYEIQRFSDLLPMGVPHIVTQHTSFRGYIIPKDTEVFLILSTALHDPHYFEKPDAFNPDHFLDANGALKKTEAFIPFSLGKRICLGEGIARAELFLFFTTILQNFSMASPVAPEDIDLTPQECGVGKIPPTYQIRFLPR
Procedure: (§2) The following substrates were used: CYP1A phenacetin, CYP2B6 bupropion, CYP2C8 paclitaxel and amodiaquine, CYP2C9 diclofenac, CYP2C19 omeprazole, CYP2D6 dextromethorphan, CYP3A midazolam and testosterone. At the end of the incubation, the formation of metabolite was monitored by HPLC-MS/MS as the peak area response.

[5] = biological target: T4, CYP2C19 (Homo sapiens, UniProt P33261); assay: CYP inhibition in human liver microsomes, CYP2C19; format: in vitro ADME; details: probe omeprazole, substrate omeprazole, read-out: CYP2C19 Inh %
T4 construct: incubated with human liver microsomes; tissue Eurofins ITEMG232; host or cells: human liver microsomes
T4 sequence (P33261 whole entry): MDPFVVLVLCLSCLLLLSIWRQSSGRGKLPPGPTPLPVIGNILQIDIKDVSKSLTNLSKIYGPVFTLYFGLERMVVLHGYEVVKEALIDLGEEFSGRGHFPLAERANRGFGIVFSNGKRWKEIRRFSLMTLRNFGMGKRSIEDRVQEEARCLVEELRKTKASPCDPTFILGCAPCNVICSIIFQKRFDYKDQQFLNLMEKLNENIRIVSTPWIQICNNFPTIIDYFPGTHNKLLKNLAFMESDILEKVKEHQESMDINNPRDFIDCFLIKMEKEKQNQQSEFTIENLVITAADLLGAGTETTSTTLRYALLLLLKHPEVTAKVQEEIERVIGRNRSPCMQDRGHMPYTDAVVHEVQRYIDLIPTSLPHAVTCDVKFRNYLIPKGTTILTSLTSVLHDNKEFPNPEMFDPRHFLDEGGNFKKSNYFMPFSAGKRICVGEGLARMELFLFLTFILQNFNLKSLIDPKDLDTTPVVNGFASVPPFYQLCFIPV
Procedure: as §2

[6] = biological target: T5, CYP2D6 (Homo sapiens, UniProt P10635); assay: CYP inhibition in human liver microsomes, CYP2D6; format: in vitro ADME; details: probe dextromethorphan, substrate dextromethorphan, read-out: CYP2D6 Inh %
T5 construct: incubated with human liver microsomes; tissue Eurofins ITEMG232; host or cells: human liver microsomes
T5 sequence (P10635 whole entry): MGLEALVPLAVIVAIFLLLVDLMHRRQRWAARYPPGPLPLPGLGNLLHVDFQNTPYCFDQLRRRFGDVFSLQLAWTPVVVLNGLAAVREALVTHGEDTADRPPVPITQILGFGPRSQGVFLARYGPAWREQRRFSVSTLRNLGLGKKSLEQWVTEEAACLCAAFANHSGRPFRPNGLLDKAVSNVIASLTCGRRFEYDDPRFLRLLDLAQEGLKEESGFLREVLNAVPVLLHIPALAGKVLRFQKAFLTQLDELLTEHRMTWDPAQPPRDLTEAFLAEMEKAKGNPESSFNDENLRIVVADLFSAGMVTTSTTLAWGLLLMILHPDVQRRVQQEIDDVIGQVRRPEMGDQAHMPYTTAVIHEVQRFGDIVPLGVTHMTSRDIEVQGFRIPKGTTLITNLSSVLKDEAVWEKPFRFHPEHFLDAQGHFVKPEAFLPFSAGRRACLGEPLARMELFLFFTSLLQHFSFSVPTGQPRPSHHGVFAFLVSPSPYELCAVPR
Procedure: as §2

[7] = tested on: CYP3A4&5; assay: CYP inhibition in human liver microsomes, CYP3A4&5 (testosterone); format: in vitro ADME; details: probe testosterone, substrate testosterone, read-out: CYP3A4&5 testosterone Inh %
Procedure: as §2

[8] = biological target: CYP3A4 (Homo sapiens, UniProt P08684); assay: CYP inhibition in human liver microsomes, CYP3A4 (midazolam); format: in vitro ADME; set-up: incubated with human liver microsomes; tissue Eurofins ITEMG232; host or cells: human liver microsomes; details: probe midazolam, substrate midazolam, read-out: CYP3A4 midazolam Inh %
Chain of CYP3A4 (P08684 whole entry): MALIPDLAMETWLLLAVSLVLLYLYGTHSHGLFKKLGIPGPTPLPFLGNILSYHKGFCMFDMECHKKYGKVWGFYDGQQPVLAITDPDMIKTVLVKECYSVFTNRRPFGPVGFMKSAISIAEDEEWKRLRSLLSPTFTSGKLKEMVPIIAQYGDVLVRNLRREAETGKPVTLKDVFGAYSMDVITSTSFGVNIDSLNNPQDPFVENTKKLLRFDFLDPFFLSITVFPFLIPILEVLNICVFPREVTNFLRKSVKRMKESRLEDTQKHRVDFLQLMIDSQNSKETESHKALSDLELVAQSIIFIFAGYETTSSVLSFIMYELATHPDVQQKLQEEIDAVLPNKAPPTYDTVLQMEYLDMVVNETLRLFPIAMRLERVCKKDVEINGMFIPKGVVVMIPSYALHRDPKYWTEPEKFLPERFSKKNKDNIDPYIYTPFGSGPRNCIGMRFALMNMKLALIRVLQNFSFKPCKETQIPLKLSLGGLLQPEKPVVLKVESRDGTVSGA
Procedure: as §2

[9] = with 1 mM NADPH, read-out: T1/2, + NaDPH
[10] = without NADPH, read-out: T1/2, no NaDPH

Row | Compound | half-life at 1 μM [1, 9] | half-life at 1 μM [1, 10] | IC50 [2] | IC50 [3] | inhibition at 10 µM [4] | inhibition at 10 µM [5] | inhibition at 10 µM [6] | inhibition at 10 µM [7] | inhibition at 10 µM [8]
1 | Cc1nccn1Cc1ccc(-c2cc(CC(C)C)sc2S(=O)(=O)NC(=O)NCc2ccccn2)cc1 [Example 2, 3-(5-isobutyl-3-{p-[(2-Methyl-1H-imidazol-1-yl)methyl]phenyl}-2-thienylsulfonyl)-1-[(2-pyridyl)methyl]urea] | > 1 h | > 1 h | 5.5 nM | > 10000 nM | 8.2% | 35.4% | 8.6% | 0.3% | 22.1%
2 | CCCCNC(=O)NS(=O)(=O)c1sc(CC(C)C)cc1-c1ccc(Cn2ccnc2C)cc1 [Example 4, 1-Butyl-3-(5-isobutyl-3-{p-[(2-methyl-1H-imidazol-1-yl)methyl]phenyl}-2-thienylsulfonyl)-urea] | 0.65 h | > 1 h | 10.5 nM | > 10000 nM | 12.7% | 37.5% | 7.7% | 8.2% | 17.1%
3 | CCc1nccn1Cc1ccc(-c2cc(CC(C)C)sc2S(=O)(=O)NC(=O)NCc2ccccc2)cc1 [Example 6, 1-Benzyl-3-(3-{p-[(2-ethyl-1H-imidazol-1-yl)methyl]phenyl}-5-isobutyl-2-thienylsulfonyl)-urea] | 0.4 h | > 1 h | 3.5 nM | > 1000 nM | 18.1% | 57% | 27.3% | 13.2% | 28.5%
4 | Cc1nccn1Cc1ccc(-c2cc(CC(C)C)sc2S(=O)(=O)NC(=O)NCc2ccccn2)cc1F [Example 13, 3-(3-{3-Fluoro-4-[(2-methyl-1H-imidazol-1-yl)methyl]phenyl}-5-isobutyl-2-thienylsulfonyl)-1-[(2-pyridyl)methyl]urea] | > 1 h | > 1 h | 0.53 nM | 26000 nM | 3% | 40% | 12% | 9% | 80%
5 | Cc1nccn1Cc1ccc(-c2cc(CC(C)C)sc2S(=O)(=O)NC(=O)NC(C)c2ccccn2)cc1F (stereo not drawn) [Example 25, 3-(3-{3-Fluoro-4-[(2-methyl-1H-imidazol-1-yl)methyl]phenyl}-5-isobutyl-2-thienylsulfonyl)-1-[1-(2-pyridyl)ethyl]urea] | 1 h | > 1 h | 2.5 nM | 30000 nM | 23% | 56% | 16% | 15% | 16%

Further molecules by falling IC50 [2], results first:

Row | half-life at 1 μM [1, 9] | half-life at 1 μM [1, 10] | IC50 [2] | IC50 [3] | inhibition at 10 µM [4] | inhibition at 10 µM [5] | inhibition at 10 µM [6] | inhibition at 10 µM [7] | inhibition at 10 µM [8] | Compound
6 | > 1 h | > 1 h | 15.2 nM | > 10000 nM | -0.4% | 37.9% | 3.2% | 3% | 10.1% | CCc1nccn1Cc1ccc(-c2cc(CC(C)C)sc2S(=O)(=O)NC(=O)NCCOC)cc1 [Example 7, 3-(3-{p-[(2-Ethyl-1H-imidazol-1-yl)methyl]phenyl}-5-isobutyl-2-thienylsulfonyl)-1-(2-methoxy-ethyl)urea]
7 | 0.417 h | > 1 h | 14.8 nM | > 10000 nM | 9.6% | 50.4% | 13.2% | 14.7% | 26.7% | Cc1nccn1Cc1ccc(-c2cc(CC(C)C)sc2S(=O)(=O)NC(=O)NCCCC(F)(F)F)cc1 [Example 5, 3-(5-isobutyl-3-{p-[(2-Methyl-1H-imidazol-1-yl)methyl]phenyl}-2-thienylsulfonyl)-1-(4,4,4-trifluorobutyl)-urea]
8 | > 1 h | > 1 h | 4.9 nM | 463000 nM | 63% | 73% | 53% | 12% | 38% | Cc1nccn1Cc1ccc(-c2cc(CC(C)C)sc2S(=O)(=O)NC(=O)NCc2nccn2C)cc1F [Example 15, 1-(3-{3-Fluoro-4-[(2-methyl-1H-imidazol-1-yl)methyl]phenyl}-5-isobutyl-2-thienylsulfonyl)-3-[(1-methyl-1H-imidazol-2-yl)methyl]urea]
9 | 0.4 h | > 1 h | 4 nM | > 1000 nM | 19% | 59.1% | 14.3% | 21.4% | 41.3% | Cc1nccn1Cc1ccc(-c2cc(CC(C)C)sc2S(=O)(=O)NC(=O)NCc2ccccc2)cc1 [Example 1, 1-benzyl-3-[[5-isobutyl-3-[4-[(2-methylimidazol-1-yl)methyl]phenyl]-2-thienyl]sulfonyl]urea]
10 | 1.5 h | > 1 h | 3.3 nM | 25000 nM | 43% | 62% | 30% | 33% | 30% | Cc1nccn1Cc1ccc(-c2cc(CC(C)C)sc2S(=O)(=O)NC(=O)NCCC(F)(F)F)cc1F [Example 14, 3-(3-{3-Fluoro-4-[(2-methyl-1H-imidazol-1-yl)methyl]phenyl}-5-isobutyl-2-thienylsulfonyl)-1-(3,3,3-trifluoropropyl)urea]
11 | 0.117 h | > 1 h | 1.6 nM | 5000 nM | 25% | 67% | 39% | 10% | 35% | CCc1nccn1Cc1ccc(-c2cc(CC(C)C)sc2S(=O)(=O)NC(=O)NCc2ccc(F)cc2)cc1F.O=C(O)C(F)(F)F [Example 32, 3-[(3-{4-[(2-ethyl-1H-imidazol-1-yl)methyl]-3-fluorophenyl}-5-(2-methylpropyl)thiophen-2-yl)sulfonyl]-1-[(4-fluorophenyl)methyl] urea trifluoroacetic acid]
